Source: US8853234B2, “Quinolone analogs and methods related thereto” (Senhwa Biosciences, Inc., priority 2007, dated 2014)
pIC50: −log10 of the molar value.

Tests used:
[1] = test system: HCT-116 human colorectal carcinoma cells; assay: Alamar Blue (AB) cell proliferation assay, HCT-116; assay type: cell-based; conditions: 96 h, Alamar Blue cell proliferation inhibition, HCT-116, four days
Description: A representative cell-proliferation assay protocol using Alamar Blue dye (stored at 4° C., use 20 ul per well) is described hereafter.
96-Well Plate Setup and Compound Treatment
a. Split and trypsinize cells.
b. Count cells using hemocytometer.
c. Plate 4,000-5,000 cells per well in 100 μl of medium and seed into a 96-well plate according to the following plate layout. Add cell culture medium only to wells B10 to B12. Wells B1 to B9 have cells but no compound added.
d. Add 100 μl of 2× drug dilution to each well in a concentration shown in the plate layout above. At the same time, add 100 μl of media into the control wells (wells B10 to B12). Total volume is 200 μl/well.
e. Incubate four (4) days at 37° C., 5% CO2 in a humidified incubator.
f. Add 20 μl Alamar Blue reagent to each well.
g. Incubate for four (4) hours at 37° C., 5% CO2 in a humidified incubator.
h. Record fluorescence at an excitation wavelength of 544 nm and emission wavelength of 590 nm using a microplate reader.
In the assays, cells are cultured with a test compound for approximately four days, the dye then is added to the cells and fluorescence of […] dye is detected after approximately four hours. Different types of cells can be utilized in the assays (e.g., HCT-116 human colorectal carcinoma cells, PC-3 human prostatic cancer cells and MiaPaca human pancreatic carcinoma cells). Anti-proliferative effects of representative compounds are provided hereafter.
Representative cassette dosing and bioavailability data are given in Table 8, along with cell proliferation inhibition (from Alamar Blue (AB) assay (e.g., Example 45 herein) and rRNA inhibition (from quantitative PCR (QPCR) assay (e.g., Example 46 herein).

rDNA = assay: Quantitative PCR (QPCR) assay, rRNA inhibition (rDNA); assay type: cell-based; set-up: Selectivity: reference not given here; conditions: for Selectivity: not defined in the patent; for pIC50: rRNA inhibition from quantitative PCR assay
From the text: In a specific assay embodiment, provided herein is a method for identifying a molecule that modulates ribosomal RNA (rRNA) synthesis, which comprises: contacting cells with a test molecule of Formula (I), (II), (III), (IV), (V), (VI), (VI′), (VII), or (VIII), contacting a ribosomal nucleotide sequence with one or more primers that amplify a portion thereof and a labeled probe that hybridizes to the amplification product, and detecting the amount of the amplification product by hybridization of the labeled probe, whereby a test molecule that reduces or increases the amount of amplification product is identified as a molecule that modulates rRNA synthesis. The labeled probe in some embodiments is added after the primers are added and the rRNA is amplified, and in certain embodiments, the labeled probe and the primers are added at the same time. The portion of ribosomal nucleotide sequence amplified sometimes is at the 5′ end of rDNA.
Real-time quantitative PCR (QPCR) method may be used to detect the changes of the target c-myc and the endogenous reference GAPDH gene copies in the same tube. Generally, cells (15,000 cells/well) are seeded on 96 well flat bottom plates (Corning, N.Y.) and incubated under normal growth conditions for overnight. The next day, the culture medium is exchanged for that containing anticancer drugs at various concentrations and incubated for 4 hrs in a humidified atmosphere of 5% CO2 at 37° C. Total RNA (tRNA) is extracted using the RNeasy 96 Kit (QIAGEN, CA). The concentration of the tRNA is determined by the RiboGreen RNA Quantitation Reagent (Molecular Probes, OR).
A reverse-transcription (RT) reaction may be conducted using 50 ng of tRNA from each well in a 25 μl reaction containing 1× TaqMan RT buffer, 2.5 uM random hexamers, 5.5 mM MgCl2, 0.5 mM each deoxynucleoside triphosphate (dNTP), 30 U MultiScribe Reverse Transcriptase, and 10 U RNase inhibitor. RT reactions are incubated for 10 min at 25° C., reverse-transcribed for 30 min at 48° C., inactivated for 5 min at 95° C., and placed at 4° C. All RT reagents may be purchased from Applied Biosystems, CA.
Real-Time QPCR reaction may be performed in a 50 μl reaction containing the 5 μl of cDNA, 1× Universal PCR Master Mix, 1× c-myc Pre-Developed Primers and Probe set, and 0.8×GAPDH Pre-Developed Primers and Probe set. Because of the relative abundance of GAPDH gene in Hela, GAPDH primers and probe concentration may be adjusted to get accurate threshold cycles (CT) for both genes in the same tube. The threshold cycle (CT) indicates the fractional cycle number at which the amount of amplified target reaches a fixed threshold. By doing so, the GAPDH amplification is stopped before it can limit the common reactants available for amplification of the c-myc. The ΔRn value represents the normalized reporter signal minus the baseline signal. ΔRn increases during PCR as amplicon copy number increases until the reaction approaches a plateau.
The c-myc probe is labeled with 6FAM™ dye-MGB and the GAPDH probe is labeled with VIC™ dye-MTB. Preincubation is performed for 2 min at 50° C. to activate AmpErase UNG enzyme and then for 10 min at 95° C. to activate AmpliTaq DNA Polymerase. DNA is amplified for 40 cycles of 15 sec at 95° C. and 1 min at 60° C. Human c-myc and GAPDH cDNA are amplified, detected, and quantitated in real time using the ABI Prism 7000 Sequence Detection system (Applied Biosystems, CA), which is set to detect both 6-FAM and VIC reporter dyes simultaneously.
The data may be analyzed using the ABI PRISM Sequence Detection System and Microsoft Excel. Relative quantitation is done using the standard curve and comparative CT method at the same time, and both methods gave equivalent results. The cycle at which the amplification plot crosses the CT is known to accurately reflect relative mRNA values. (See, Heid, et al., Genome Res. (1996) 6:986-994; Gibson, et al., Genome Res. (1996) 6:995-1001). […]

SMILES	pIC50 [1]	Selectivity (rDNA)	pIC50 (rDNA)
Cn1c2ccccc2n2c3nc(N4CCOCC4)c(F)cc3c(=O)c(C(=O)NCCN3CCCC3)c12	6.51	7	6.50
O=C(NCCN1CCCC1)c1c(=O)c2ccc(N3CCOCC3)nc2n2c1sc1ccccc12	7.23	162	7.28
CN1CCCC1CCNC(=O)c1c(=O)c2ccc(N3CCOCC3)nc2n2c1sc1ccccc12 (stereo not drawn)	7.26	42	6.60
Cn1c2ccccc2n2c3nc(N4CCOCC4)ccc3c(=O)c(C(=O)NCCN3CCCC3)c12	7.12	3	6.58
CN1CCCC1CCNC(=O)c1cn2c3c(c(N4CCOCC4)c(F)cc3c1=O)Oc1ccccc1-2 (stereo not drawn)	6.41	12	6.39
CN1CCCC1CCNC(=O)c1c(=O)c2cc(F)c(N3CCOCC3)nc2n2c1sc1ccccc12 (stereo not drawn)	6.47	10	6.05
O=C(NCCN1CCCC1)c1c(=O)c2cc(F)c(N3CCOCC3)nc2n2c1sc1ccccc12	7.09	70	6.90
CN1CCN(C(=O)c2c(=O)c3cc(F)c(N4CCOCC4)nc3n3c2sc2ccccc23)CC1	6.41	7	5.94
O=C(NCCN1CCC(O)C1)c1c(=O)c2cc(F)c(N3CCOCC3)nc2n2c1sc1ccccc12 (stereo not drawn)	7.26	10	8.00
CN1CCC(N(C)C(=O)c2c(=O)c3cc(F)c(N4CCOCC4)nc3n3c2sc2ccccc23)C1 (stereo not drawn)	6.76	5	6.42
O=C(NCCNCC1CCCO1)c1c(=O)c2ccc(N3CCOCC3)nc2n2c1sc1ccccc12 (stereo not drawn)	6.94	119	7.40
O=C(NCCN1CC=CC1)c1c(=O)c2ccc(N3CCOCC3)nc2n2c1sc1ccccc12	6.89	22	7.19
Cn1cncc1CNC(=O)c1c(=O)c2ccc(N3CCOCC3)nc2n2c1sc1ccccc12	6.76	60	6.58
O=C(c1c(=O)c2ccc(N3CCOCC3)nc2n2c1sc1ccccc12)N1CCN(c2ncccn2)CC1	6.34	13	6.24
O=C(c1c(=O)c2ccc(N3CCOCC3)nc2n2c1sc1ccccc12)N1CCN(c2ccccn2)CC1	6.68	17	6.14
O=C(NCCN1CC=CC1)c1cn2c3c(c(N4CCC(c5cnccn5)C4)c(F)cc3c1=O)Oc1cc3ccccc3cc1-2 (stereo not drawn)	6.40	24	5.98
O=C(NCCN1CC=CCC1)c1c(=O)c2ccc(N3CCOCC3)nc2n2c1sc1ccccc12	7.01	64	7.49
O=C(NCCN1CC=CC1)c1c(=O)c2cc(F)c(N3CCOCC3)nc2n2c1sc1ccccc12	6.41	3	7.38
O=C(NCCNCCF)c1c(=O)c2ccc(N3CCOCC3)nc2n2c1sc1ccccc12	6.87	48	7.23

SMILES	pIC50 [1]	Selectivity (rDNA)	pIC50 (rDNA)
O=C(NCCNCC(F)(F)F)c1c(=O)c2ccc(N3CCOCC3)nc2n2c1sc1ccccc12	6.27	15	6.30
O=C(NCCNCCF)c1c(=O)c2cc(F)c(N3CCOCC3)nc2n2c1sc1ccccc12	6.32	70	6.83
O=C(NCCn1ccnc1)c1c(=O)c2ccc(N3CCOCC3)nc2n2c1sc1ccccc12	6.33	24	6.37
Cn1ccnc1CNC(=O)c1c(=O)c2ccc(N3CCOCC3)nc2n2c1sc1ccccc12	6.84	9	6.76
O=C(NCCN1CCOCC1)c1c(=O)c2ccc(N3CCOCC3)nc2n2c1sc1ccccc12	6.34	16	6.30
Cn1ccnc1CNC(=O)c1c(=O)c2cc(F)c(N3CCOCC3)nc2n2c1sc1ccccc12	6.70	11	6.87
Cc1nccn1CCNC(=O)c1c(=O)c2ccc(N3CCOCC3)nc2n2c1sc1ccccc12	6.78	21	7.08
O=C(NNC1=NCCN1)c1c(=O)c2cc(F)c(N3CCOCC3)nc2n2c1sc1ccccc12	9.00	893	7.55
Cn1c2ccccc2n2c3nc(N4CCOCC4)c(F)cc3c(=O)c(C(=O)N3CCN4CCCC4C3)c12 (stereo not drawn)	6.07	10	6.08
CN1CCN(c2ccc3c(=O)c(C(=O)NCc4ccccn4)c4sc5ccccc5n4c3n2)CC1	6.83	111	6.95
O=C(NCCNC1CC1)c1c(=O)c2cc(F)c(N3CCOCC3)nc2n2c1sc1ccccc12	6.88	53	6.61
CN1CCCCC1CNC(=O)c1c(=O)c2ccc(N3CCOCC3)nc2n2c1sc1ccccc12 (stereo not drawn)	8.22	2778	8.05
CN1CCCN(C(=O)c2c(=O)c3cc(F)c(N4CCOCC4)nc3n3c2sc2ccccc23)CC1	6.52	10	6.63
Cn1ccnc1CNC(=O)c1c(=O)c2cc(N3CCOCC3)nnc2n2c1sc1ccccc12	6.76	53	6.48
CN1CCCC(NC(=O)c2c(=O)c3cc(F)c(N4CCOCC4)nc3n3c2sc2ccccc23)C1 (stereo not drawn)	7.57	862	7.54
O=C(NCC1CCCN1)c1c(=O)c2cc(F)c(N3CCOCC3)nc2n2c1sc1ccccc12 (stereo not drawn)	8.05	25	7.80
CN1CCCCC1CNc1ccc2c(=O)c(C(=O)NCc3ccncc3)c3sc4ccccc4n3c2n1 (stereo not drawn)	8.10	39	7.17
CN1CCCC1CNC(=O)c1c(=O)c2cc(F)c(N3CCOCC3)nc2n2c1sc1ccccc12 (stereo not drawn)	6.89	45	6.42
CN1CCN(c2nc3c(cc2F)c(=O)c(C(=O)NCc2cn(C)cn2)c2sc4ccccc4n23)CC1	6.52	69	6.86
